Assay results: PubChem BioAssay (NCI)
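Compound exposure: 48 hours, 5 concentrations, 96-well plates. Here, GI50 denotes the concentration required for 50% inhibition of growth. TGI: concentration producing complete growth inhibition.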

Key:
Experiment in all cases: NCI tumour cell line growth inhibition, 48 h
786-0 renal = tested on: 786-0 renal
OVCAR-4 ovarian = tested on: OVCAR-4 ovarian
SK-MEL-2 melanoma = tested on: SK-MEL-2 melanoma
NCI-H23 lung = tested on: NCI-H23 lung
IGROV1 ovarian = tested on: IGROV1 ovarian
NCI-H522 lung = tested on: NCI-H522 lung
NCI-H226 lung = tested on: NCI-H226 lung
A498 renal = tested on: A498 renal
UACC-257 melanoma = tested on: UACC-257 melanoma
SF-295 CNS = tested on: SF-295 CNS

COc1cc(C(=O)O)c([N+](=O)[O-])c(OC)c1OC
TGI (786-0 renal): > 100 µM
TGI (OVCAR-4 ovarian): > 100 µM
TGI (SK-MEL-2 melanoma): > 100 µM
TGI (NCI-H23 lung): > 100 µM
TGI (IGROV1 ovarian): > 100 µM
TGI (NCI-H522 lung): > 100 µM
TGI (NCI-H226 lung): > 100 µM
TGI (A498 renal): > 100 µM
TGI (UACC-257 melanoma): > 100 µM
TGI (SF-295 CNS): > 100 µM

Nc1nc(N)[n+]([O-])c(N)c1NCO
TGI (786-0 renal): > 100 µM
TGI (OVCAR-4 ovarian): > 100 µM
TGI (SK-MEL-2 melanoma): > 100 µM
TGI (NCI-H23 lung): > 100 µM
TGI (IGROV1 ovarian): > 100 µM
TGI (NCI-H522 lung): > 100 µM
TGI (NCI-H226 lung): > 100 µM
TGI (A498 renal): > 100 µM
TGI (UACC-257 melanoma): > 100 µM
TGI (SF-295 CNS): > 100 µM

Cn1nc(-c2ccccc2NC(=O)C(F)(F)F)c(=O)n(C)c1=S
TGI (786-0 renal): > 100 µM
TGI (OVCAR-4 ovarian): 62.3 µM
TGI (SK-MEL-2 melanoma): 60.7 µM
TGI (NCI-H23 lung): 80.8 µM
TGI (IGROV1 ovarian): > 100 µM
TGI (NCI-H522 lung): 49.2 µM
TGI (NCI-H226 lung): > 100 µM
TGI (SF-295 CNS): > 100 µM

C/C(=N\NC(=S)Nc1ccc(C(=O)O)cc1)c1ccccn1
TGI (786-0 renal): 43.3 µM
TGI (OVCAR-4 ovarian): 29.5 µM
TGI (SK-MEL-2 melanoma): 35.4 µM
TGI (NCI-H23 lung): 98.6 µM
TGI (IGROV1 ovarian): 85.8 µM
TGI (NCI-H226 lung): 34.2 µM
TGI (A498 renal): 50.7 µM
TGI (UACC-257 melanoma): 62.1 µM
TGI (SF-295 CNS): > 100 µM

Cc1cc(C)nc(NS(=O)(=O)c2ccc(Nc3c4ccccc4nc4c(C(=O)Nc5ccc(S(N)(=O)=O)cc5)cccc34)cc2)n1
TGI (786-0 renal): > 100 µM
TGI (OVCAR-4 ovarian): > 100 µM
TGI (SK-MEL-2 melanoma): > 100 µM
TGI (NCI-H23 lung): > 100 µM
TGI (IGROV1 ovarian): > 100 µM
TGI (NCI-H522 lung): > 100 µM
TGI (A498 renal): > 100 µM
TGI (UACC-257 melanoma): > 100 µM
TGI (SF-295 CNS): > 100 µM

CCCCCCCCCCCCc1ccc(C(=O)/C=C/C(=O)O)cc1
GI50 (786-0 renal): 2.03 µM
TGI (786-0 renal): 4.05 µM
GI50 (OVCAR-4 ovarian): 2.06 µM
TGI (OVCAR-4 ovarian): 4.46 µM
GI50 (NCI-H23 lung): 1.89 µM
TGI (NCI-H23 lung): 4.65 µM
GI50 (IGROV1 ovarian): 1.95 µM
TGI (IGROV1 ovarian): 3.86 µM
GI50 (NCI-H522 lung): 1.98 µM
TGI (NCI-H522 lung): 4.73 µM
GI50 (NCI-H226 lung): 1.59 µM
TGI (NCI-H226 lung): 3.14 µM
GI50 (A498 renal): 13.2 µM
TGI (A498 renal): 26.7 µM
GI50 (UACC-257 melanoma): 3.79 µM
TGI (UACC-257 melanoma): 15.2 µM
GI50 (SF-295 CNS): 12.5 µM
TGI (SF-295 CNS): 25.5 µM

Cn1ncc2cc3c(Nc4ccc(Cl)cc4)cccc3nc21
TGI (786-0 renal): > 100 µM
TGI (OVCAR-4 ovarian): 40 µM
TGI (SK-MEL-2 melanoma): 51.8 µM
TGI (NCI-H23 lung): > 100 µM
TGI (IGROV1 ovarian): 38.8 µM
TGI (UACC-257 melanoma): 38.3 µM
TGI (SF-295 CNS): 35.3 µM

CCOP(=O)(OCC)C1C(=O)O[C@H]2CCCC[C@@H]12 (stereo not given in full)
TGI (786-0 renal): > 100 µM
TGI (OVCAR-4 ovarian): > 100 µM
TGI (SK-MEL-2 melanoma): > 100 µM
TGI (NCI-H23 lung): > 100 µM
TGI (IGROV1 ovarian): > 100 µM
TGI (A498 renal): > 100 µM
TGI (UACC-257 melanoma): > 100 µM
TGI (SF-295 CNS): > 100 µM

NC(N)=NC(CC(=O)O)c1ccccc1 (stereo not given)
TGI (786-0 renal): > 100 µM
TGI (OVCAR-4 ovarian): > 100 µM
TGI (SK-MEL-2 melanoma): > 100 µM
TGI (NCI-H23 lung): > 100 µM
TGI (IGROV1 ovarian): > 100 µM
TGI (NCI-H522 lung): > 100 µM
TGI (A498 renal): > 100 µM
TGI (UACC-257 melanoma): > 100 µM
TGI (SF-295 CNS): > 100 µM

CCOC(=O)c1cccc(=O)c(C(=O)OCC)c1
TGI (786-0 renal): > 100 µM
TGI (OVCAR-4 ovarian): > 100 µM
TGI (SK-MEL-2 melanoma): > 100 µM
TGI (NCI-H23 lung): > 100 µM
TGI (IGROV1 ovarian): > 100 µM
TGI (NCI-H226 lung): 45.4 µM
TGI (A498 renal): > 100 µM
TGI (UACC-257 melanoma): > 100 µM

COc1cc(C2C(Cl)C(=O)N2n2cnc3ccccc3c2=O)cc(OC)c1OC (stereo not given)
TGI (786-0 renal): > 100 µM
TGI (OVCAR-4 ovarian): > 100 µM
TGI (SK-MEL-2 melanoma): > 100 µM
TGI (NCI-H23 lung): > 100 µM
TGI (IGROV1 ovarian): > 100 µM
TGI (NCI-H522 lung): > 100 µM
TGI (NCI-H226 lung): > 100 µM
TGI (UACC-257 melanoma): > 100 µM
TGI (SF-295 CNS): > 100 µM
